Reference: patent US20090221567A1, “MUSCARINIC RECEPTOR AGONISTS, COMPOSITIONS, METHODS OF TREATMENT THEREOF, AND PROCESSES FOR PREPARATION THEREOF 177” (ASTRAZENECA AB, priority 2008, published 2009)

Experiments:
[1] = molecular target: T1, hM5 (human Muscarinic receptor subtype 5) (Homo sapiens, UniProt P08912); assay: Human M5 calcium mobilization FLIPR assay; format: cell-based; conditions: receptor expressed in CHO cells, intracellular Ca2+ release
T1 construct: expressed in transfected cells; host or cells: CHO cells (Chinese hamster ovary cells, ATCC)
T1 sequence (P08912 1-532): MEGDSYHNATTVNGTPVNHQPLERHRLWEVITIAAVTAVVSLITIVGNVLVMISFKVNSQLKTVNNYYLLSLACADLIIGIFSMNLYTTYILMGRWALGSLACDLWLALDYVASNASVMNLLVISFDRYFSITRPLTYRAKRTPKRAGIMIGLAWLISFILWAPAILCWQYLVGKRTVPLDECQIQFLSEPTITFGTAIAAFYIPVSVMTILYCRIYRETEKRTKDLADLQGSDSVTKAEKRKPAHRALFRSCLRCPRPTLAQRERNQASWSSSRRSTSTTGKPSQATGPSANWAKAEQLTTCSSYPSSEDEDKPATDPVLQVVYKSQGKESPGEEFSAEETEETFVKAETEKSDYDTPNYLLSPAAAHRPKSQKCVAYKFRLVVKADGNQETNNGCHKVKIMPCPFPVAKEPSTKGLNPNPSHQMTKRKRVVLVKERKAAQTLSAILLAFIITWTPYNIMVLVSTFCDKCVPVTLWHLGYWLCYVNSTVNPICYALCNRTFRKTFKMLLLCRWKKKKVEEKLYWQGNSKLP
Procedure: The compound activity in the present invention (EC50 or IC50) is measured using a 384 plate-based imaging assay that monitors drug induced intracellular Ca^2+ release in whole cells. Activation of hM1 (human Muscarinic receptor subtype 1, gene bank access NM_000738), rM1 (rat Muscarinic receptor subtype 1, gene bank access NM_080773), hM3 (human Muscarinic receptor subtype 3, gene bank access NM_000740NM_000740) and hM5 (human Muscarinic receptor subtype 5, gene bank access NM_0121258), receptors expressed in CHO cells (Chinese hamster ovary cells, ATCC) is quantified in a Molecular Devices FLIPR IITM instrument as an increase in fluorescent signal. Inhibition of hM3 and hM5 by compounds is determined by the decrease in fluorescent signal in response to 2 nM acetylcholine activation.
Prior to experiment, the cell culture medium is removed from the plates by inversion. […] Plates are incubated at 37° C. for 60 minutes prior to start the experiment. The incubation is terminated by washing the cells four times in assay buffer, leaving a residual 25 μl buffer per well. Cell plates are then transferred to the FLIPR, ready for compound additions.
The day of experiment, acetylcholine and compounds are diluted in assay buffer in three-fold concentration range (10 points serial dilution) for addition by FLIPR instrument. For all calcium assays, a baseline reading is taken for 10 seconds followed by the addition of 12.5 μl of compounds, resulting in a total well volume of 37.5 μl. Data is collected every second for 60 pictures and then every 6 seconds for 20 pictures prior to the addition of agonist. For hM3 and hM5, before agonist addition, a second baseline reading is taken for 10 seconds followed by the addition of 12.5 μl of agonist or buffer, producing a final volume of 50 μl. After agonist stimulation, the FLIPR continues to collect data every second for 60 pictures and then every 6 seconds for 20 pictures. The fluorescence emission is read using filter 1 (emission 510-570 nm) by the FLIPR on board CCD camera.
Calcium mobilization output data are calculated as the maximal relative fluorescence unit (RFU) minus the minimal value for both compound and agonist reading frame (except for hM1 and rM1 using only the maximal RFU). Data are analyzed using sigmoidal fits of a non-linear curve-fitting program (XLfit version 4.2.2 Excel add-in version 4.2.2 build 18 math 1Q version 2.1.2 build 18). All pEC50 and pIC50 values are reported as arithmetic means±standard error of mean of ‘n’ independent experiments.

[2] = molecular target: T2, human M2 receptor (human Muscarinic receptor subtype 2) (Homo sapiens, UniProt P08172); assay: hM2 receptor GTPγS binding; format: biochemical; conditions: CHO membranes, [35S]GTPγS binding
T2 construct: purchased Perkin-Elmer RBHM2M; host or cells: membranes from CHO cells expressing the cloned receptor
T2 sequence (P08172 1-466): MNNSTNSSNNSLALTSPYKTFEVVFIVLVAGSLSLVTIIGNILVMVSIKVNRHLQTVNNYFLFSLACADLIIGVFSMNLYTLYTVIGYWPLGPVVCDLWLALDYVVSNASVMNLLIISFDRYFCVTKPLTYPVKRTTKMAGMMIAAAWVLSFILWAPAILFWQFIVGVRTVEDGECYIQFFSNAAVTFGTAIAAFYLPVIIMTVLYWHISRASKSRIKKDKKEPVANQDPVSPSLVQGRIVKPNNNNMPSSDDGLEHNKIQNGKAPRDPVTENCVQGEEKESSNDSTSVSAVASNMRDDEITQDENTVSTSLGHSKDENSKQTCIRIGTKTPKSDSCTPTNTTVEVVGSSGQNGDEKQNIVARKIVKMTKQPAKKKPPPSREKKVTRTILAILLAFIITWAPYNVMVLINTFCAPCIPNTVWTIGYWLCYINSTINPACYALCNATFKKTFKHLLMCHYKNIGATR
Procedure: Membranes produced from Chinese hamster ovary cells (CHO) expressing the cloned human M2 receptor (human Muscarinic receptor subtype 2, gene bank access NM_000739), are obtained from Perkin-Elmer (RBHM2M). The membranes are thawed at 37° C., passed 3 times through a 23-gauge blunt-end needle, diluted in the GTPγS binding buffer (50 mM Hepes, 20 mM NaOH, 100 mM NaCl, 1 mM EDTA, 5 mM MgCl2, pH 7.4, 100 μM DTT). The EC50, IC50 and Emax of the compounds of the invention are evaluated from 10-point dose-response curves (three fold concentration range) done in 60 μl in 384-well non-specific binding surface plate (Corning). Ten microliters from the dose-response curves plate (5× concentration) are transferred to another 384 well plate containing 25 μl of the following: 5 μg of hM2 membranes, 500 μg of Flashblue beads (Perkin-Elmer) and GDP 25 μM. An additional 15 μl containing 3.3× (60,000 dpm) of GTPγ^35S (0.4 nM final) are added to the wells resulting in a total well volume of 50 μl. Basal and maximal stimulated [^35S]GTPγS binding are determined in absence and presence of 30 μM final of acetylcholine agonist. The membranes/beads mix are pre-incubated for 15 minutes at room temperature with 25 μM GDP prior to distribution in plates (12.5 μM final). The reversal of acetylcholine-induced stimulation (2 μM final) of [^35S]GTPγS binding is used to assay the antagonist properties (IC50) of the compounds. The plates are incubated for 60 minutes at room temperature then centrifuged at 400 rpm for 5 minutes. The radioactivity (cpm) is counted in a Trilux (Perkin-Elmer).
Values of EC50, IC50 and Emax are obtained using sigmoidal fits of a non-linear curve-fitting program (XLfit version 4.2.2 Excel add-in version 4.2.2 build 18 math 1Q version 2.1.2 build 18) of percent stimulated [^35S]GTPγS binding vs. log(molar ligand). All pEC50 and pIC50 values are reported as arithmetic means±standard error of mean of ‘n’ independent experiments.

CCOC(=O)N1CCC(C)(N2CCC(N3C(=O)CO[C@H]4CCCC[C@@H]43)CC2)C1 (single isomer, unassigned) [Example 18]
EC50 [1]: > 40 µM
EC50 [2]: 3.7 µM

CCOC(=O)N1CCC(C)(N2CCC(N3C(=O)CO[C@H]4CCCC[C@@H]43)CC2)C1 (single isomer, unassigned) [Example 19]
EC50 [1]: > 40 µM
EC50 [2]: > 40 µM

CCOC(=O)N1CCC(N2CCC(N3C(=O)NC[C@H]4CCCC[C@@H]43)CC2)CC1 [Example 1, Ethyl 4-[4-[(4aR,8aS)-2-oxo-3,4,4a,5,6,7,8,8a-octahydroquinazolin-1-y]-1-piperidyl]piperidine-1-carboxylate]
EC50 [2]: 0.38 µM

CC(C)OC(=O)N1CCC(N2CCC(N3C(=O)NC[C@H]4CCCC[C@@H]43)CC2)CC1 [Example 2, Propan-2-yl 4-[4-[(4aR,8aS)-2-oxo-3,4,4a,5,6,7,8,8a-octahydroquinazolin-1-yl]-1-piperidyl]piperidine-1-carboxylate]
EC50 [1]: > 49.2 µM
EC50 [2]: > 1.2 µM

O=C(C1CC1)N1CCC(N2CCC(N3C(=O)NC[C@H]4CCCC[C@@H]43)CC2)CC1 [Example 3, (4aR,8aS)-1-[1-[1-(cyclopropanecarbonyl)-4-piperidyl]-4-piperidyl]-3,4,4a,5,6,7,8,8a-octahydroquinazolin-2-one]
EC50 [1]: > 31.1 µM
EC50 [2]: > 12 µM

Cc1ccccc1C(=O)N1CCC(N2CCC(N3C(=O)NC[C@H]4CCCC[C@@H]43)CC2)CC1 [Example 4, (4aR,8aS)-1-[1-[1-(2-methylbenzoyl)-4-piperidyl]-4-piperidyl]-3,4,4a,5,6,7,8,8a-octahydroquinazolin-2-one]
EC50 [1]: > 49.2 µM
EC50 [2]: > 30 µM

CC(C)OC(=O)N1CCC(N2CCC(N3C(=O)N(C)C[C@H]4CCCC[C@@H]43)CC2)CC1 [Example 6, Propan-2-yl 4-[4-[(4aR,8aS)-3-methyl-2-oxo-4a,5,6,7,8,8a-hexahydro-4H-quinazolin-1-yl]-1-piperidyl]piperidine-1-carboxylate]
EC50 [1]: > 40 µM
EC50 [2]: > 30 µM

CCOC(=O)N1CCC(C)(N2CCC(N3C(=O)NC[C@H]4CCCC[C@@H]43)CC2)CC1 [Example 7, Ethyl 4-[4-[(4aR,8aS)-2-oxo-3,4,4a,5,6,7,8,8a-octahydroquinazolin-1-yl]-1-piperidyl]-4-methyl-piperidine-1-carboxylate]
EC50 [1]: 0.168 µM
EC50 [2]: 0.07 µM

CC(C)OC(=O)N1CCC(C)(N2CCC(N3C(=O)NC[C@H]4CCCC[C@@H]43)CC2)CC1 [Example 8, Propan-2-yl 4-[4-[(4aR,8aS)-2-oxo-3,4,4a,5,6,7,8,8a-octahydroquinazolin-1-yl]-1-piperidyl]-4-methyl-piperidine-1-carboxylate]
EC50 [1]: > 40 µM
EC50 [2]: > 30 µM

CCOC(=O)N1CCC(N2CCC(N3C(=O)CO[C@H]4CCCC[C@@H]43)CC2)CC1 [Example 9, Ethyl 4-[4-[(1S,6S)-9-oxo-7-oxa-10-azabicyclo[4.4.0]dec-10-yl]-1-piperidyl]piperidine-1-carboxylate]
EC50 [1]: 0.0977 µM
EC50 [2]: 2.5 µM

CC(C)OC(=O)N1CCC(N2CCC(N3C(=O)CO[C@H]4CCCC[C@@H]43)CC2)CC1 [Example 10, Propan-2-yl 4-[4-[(1S,6S)-9-oxo-7-oxa-10-azabicyclo[4.4.0]dec-10-yl]-1-piperidyl]piperidine-1-carboxylate]
EC50 [1]: > 40 µM
EC50 [2]: > 6.6 µM

Cc1ccccc1C(=O)N1CCC(N2CCC(N3C(=O)CO[C@H]4CCCC[C@@H]43)CC2)CC1 [Example 11, (1S,6S)-10-[1-[1-(2-methylbenzoyl)-4-piperidyl]-4-piperidyl]-7-oxa-10-azabicyclo[4.4.0]decan-9-one]
EC50 [1]: > 40 µM
EC50 [2]: > 30 µM

Cn1cccc1C(=O)N1CCC(N2CCC(N3C(=O)CO[C@H]4CCCC[C@@H]43)CC2)CC1 [Example 12, (1S,6S)-10-[1-[1-(1-methylpyrrole-2-carbonyl)-4-piperidyl]-4-piperidyl]-7-oxa-10-azabicyclo[4.4.0]decan-9-one]
EC50 [1]: > 40 µM
EC50 [2]: > 30 µM

CCOC(=O)N1CC[C@H](N2CCC(N3C(=O)CO[C@H]4CCCC[C@@H]43)CC2)C1 [Example 13, Ethyl (3S)-3-[4-[(1S,6S)-9-oxo-7-oxa-10-azabicyclo[4.4.0]dec-10-yl]-1-piperidyl]pyrrolidine-1-carboxylate]
EC50 [1]: > 40 µM
EC50 [2]: > 30 µM

CC(C)OC(=O)N1CCC(N2CCC(N3C(=O)CO[C@@H]4CCCC[C@H]43)CC2)CC1 [Example 14, Propan-2-yl 4-[4-[(1R,6R)-9-oxo-7-oxa-10-azabicyclo[4.4.0]dec-10yl]-1-piperidyl]piperidine-1-carboxylate]
EC50 [1]: > 40 µM
EC50 [2]: > 30 µM

CCOC(=O)N1CCC(N2CCC(N3C(=O)OC[C@H]4CCCC[C@@H]43)CC2)CC1 [Example 15, Ethyl 4-[4-[(1S,6S)-9-oxo-8-oxa-10-azabicyclo[4.4.0]dec-10-yl]-1-piperidyl]piperidine-1-carboxylate]
EC50 [1]: > 40 µM
EC50 [2]: > 12 µM
